In patent publication US20250368648A1, “MULTI-CYCLIC IRAK AND FLT3 INHIBITING COMPOUNDS AND USES THEREOF” (CHILDREN'S HOSPITAL MEDICAL CENTER, priority 2022, published 2025):
pIC50: −log10 of the molar value.

What follows are compounds tested against T1, FLT3 (Homo sapiens, UniProt P36888) (assay: Reaction Biology NanoBRET target engagement assay, FLT3). Conditions: HEK-293 cells transfected with Kinase-NanoLuc fusion vector, live cells.
T1 sequence (P36888 27-993): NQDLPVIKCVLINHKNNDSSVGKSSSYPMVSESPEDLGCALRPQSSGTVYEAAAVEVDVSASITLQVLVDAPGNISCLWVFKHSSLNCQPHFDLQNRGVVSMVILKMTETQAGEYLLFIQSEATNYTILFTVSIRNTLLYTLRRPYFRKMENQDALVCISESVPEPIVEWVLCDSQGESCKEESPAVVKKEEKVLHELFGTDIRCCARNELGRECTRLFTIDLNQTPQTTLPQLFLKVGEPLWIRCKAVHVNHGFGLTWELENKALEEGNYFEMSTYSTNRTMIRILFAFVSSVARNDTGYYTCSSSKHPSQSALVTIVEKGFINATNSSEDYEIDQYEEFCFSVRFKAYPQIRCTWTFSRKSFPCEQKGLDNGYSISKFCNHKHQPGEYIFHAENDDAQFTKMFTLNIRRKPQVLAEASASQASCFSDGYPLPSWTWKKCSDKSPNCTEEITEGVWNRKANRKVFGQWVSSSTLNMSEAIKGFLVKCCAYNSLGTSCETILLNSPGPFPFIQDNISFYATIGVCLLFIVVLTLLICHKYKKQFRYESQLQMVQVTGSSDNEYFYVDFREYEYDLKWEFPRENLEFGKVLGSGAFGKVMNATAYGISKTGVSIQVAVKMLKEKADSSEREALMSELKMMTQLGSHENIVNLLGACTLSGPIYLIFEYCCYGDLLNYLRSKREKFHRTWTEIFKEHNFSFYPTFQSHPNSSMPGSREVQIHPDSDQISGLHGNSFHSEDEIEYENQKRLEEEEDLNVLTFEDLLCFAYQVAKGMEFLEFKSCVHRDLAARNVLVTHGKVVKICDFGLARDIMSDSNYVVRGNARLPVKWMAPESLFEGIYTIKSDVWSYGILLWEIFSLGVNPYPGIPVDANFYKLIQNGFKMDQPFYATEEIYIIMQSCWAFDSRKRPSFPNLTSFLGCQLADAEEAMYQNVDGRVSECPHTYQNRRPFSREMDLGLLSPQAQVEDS
Format: cell-based
Text: The NanoBRET assay measures kinase engagement in real time in the context of the intact cell. Unlike the previously described biochemical kinase assay methodologies in Examples 47 and 48, the NanoBRET assay measures the binding and activity characteristics under equilibrium conditions using full-length kinases in the presence of cellular concentrations of ATP in live, uncompromised cells. […] The assay uses a Kinase-NanoLuc® fusion vector expressing a kinase protein to which a luciferase tag has been added, a cell-permeant fluorescent NanoBRET™ tracer, a NanoLuc® substrate, and an extracellular NanoLuc® inhibitor. Upon expression of the luciferase-tagged kinase, cells will produce a strong BRET signal only in the presence of the NanoBRET™ tracer. The extracellular NanoLuc® inhibitor ensures that the BRET signal observed emanates only from live cells. Because the BRET signal has tight distance constraints, addition of the test compound will decrease the BRET signal if the compound competes with the NanoBRET™ tracer for binding to the kinase domain. Under the appropriate tracer conditions established by the manufacturer, quantitative intracellular affinity and relative potency can then be determined using Mass Action model equations.
HEK-293 cells were purchased from ATCC. FuGENEHD Transfection Reagent, Kinase-NanoLucfusion plasmids, Transfection Carrier DNA, NanoBRETTracers and dilution buffer, NanoBRETNano-Glo Substrate, Extracellular NanoLucInhibitor were obtained from Promega.
Assays were conducted following Promega assay protocol with some modifications. HEK-293 Cells were transiently transfected with Kinase-NanoLucFusion Vector DNA by FuGENEHD Transfection Reagent. Testing compounds were delivered into 384 well assay plate by Echo 550 (LabcyteInc, Sunnyvale, CA). Transfected cells were harvested and mixed with NanoBRETTracer Reagent and dispensed into 384 well plates and incubated at 37° C. in 5% CO2 cell culture incubator for 1 hour. The NanoBRETNano-Glo Substrate plus Extracellular NanoLucInhibitor Solution were added into the wells of the assay plate and incubated for 2-3 minutes at room temperature. The donor emission wavelength (460 nm) and acceptor emission wavelength (600 nm) were measured in the EnVisionplate reader. The BRET Ratios were calculated. BRET Ratio=[(Acceptor sample÷Donor sample)−(Acceptor no-tracer control÷Donor no-tracer control)]. The IC50 values of compounds were calculated with Prism GraphPad program.
• 1). Cultivate HEK-293 cells (70-80% confluence) appropriately prior to assay. Trypsinize and collect HEK-293 cells. • 2). Prepare lipid: DNA complexes as follows: • a. Prepare a 10 μg/ml solution of DNA in Opti-MEM without serum that consists of the following ratios of carrier DNA and DNA encoding NanoLuc® fusion. […] of Transfection Carrier DNA, […] of NanoLuc fusion vector DNA and 1 mL of Opti-MEM without phenol red. Mix thoroughly. • b. Add 30 μl of FuGENE HD Transfection Reagent into each milliliter of DNA mixture to form lipid: DNA complex. • c. Mix by inversion 10 times. • d. Incubate at ambient temperature for 20 minutes to allow complexes to form. • 3). In a sterile, conical tube, mix 1 part of lipid:DNA complex with 20 parts of HEK-293 cells in suspension. Mix gently by inversion 5 times. • 4). Dispense cells+lipid: DNA complex into a sterile tissue culture dish and incubate for 22-24 hours.
Each test compound is delivered from the compound source plate to the wells of 384-well white NBS plate by Echo 550.
3. Preparation of Cells with NanoBRET™ Tracer Reagent • 1). Remove medium from dish with transfected HEK-293 cells via aspiration, trypsinize and allow cells to dissociate from the dish. • 2). Neutralize trypsin using medium containing serum and centrifuge at 200× g for 5 minutes to pellet the cells. Adjust the cell density to […] cells/mL in Opti-MEM without phenol red. • 3). Prepare Complete 20× NanoBRET™ Tracer Reagent with Tracer Dilution Buffer. • 4). […]
`COc1cc2ncc(-c3nc(N[C@H]4CNCC[C@@H]4F)c(F)cc3F)n2nc1C(C)(O)C(F)(F)F` (single isomer, unassigned) [Compound 77a] showed a pIC50 of 8.70. `COc1cc2ncc(-c3nc(N[C@H]4CNC[C@@H]4F)c(F)cc3F)n2nc1C(C)(O)C(F)(F)F` (single isomer, unassigned) [Compound 80a] showed a pIC50 of 9.00. Work on `COc1cc2ncc(-c3nc(N[C@@H]4CCCNC4)c(F)cc3F)n2nc1C(C)(O)C(F)(F)F` (single isomer, unassigned) [Compound 81a] yielded a pIC50 of 8.30. With `COc1cc2ncc(-c3nc(N[C@H]4CNCC[C@@H]4F)c(F)cc3F)n2nc1C1CC2(CCC2)C1` [Compound 10a, 3,5-difluoro-N-((3S,4S)-4-fluoropiperidin-3-yl)-6-(7-methoxy-6-(spiro[3.3]heptan-2-yl)imidazo[1,2-b]pyridazin-3-yl)pyridin-2-amine] the pIC50 was 7.20. Compound `COc1cc2ncc(-c3nc(N[C@H]4CNC[C@@H]4F)c(F)cc3F)n2nc1C1CC2(CCC2)C1` [Compound 12a, 3,5-difluoro-N-((3S,4S)-4-fluoropyrrolidin-3-yl)-6-(7-methoxy-6-(spiro[3.3]heptan-2-yl)imidazo[1,2-b]pyridazin-3-yl)pyridin-2-amine] has a pIC50 of 7.89. Compound `COc1cc2ncc(-c3nc(N[C@H]4CNCC[C@@H]4F)c(F)cc3F)n2nc1C1CCC1` [Compound 15a, 6-(6-cyclobutyl-7-methoxyimidazo[1,2-b]pyridazin-3-yl)-3,5-difluoro-N-((3S,4S)-4-fluoropiperidin-3-yl)pyridin-2-amine] has a pIC50 of over 9.30. With `COc1cc2ncc(-c3nc(N[C@H]4CNCC[C@@H]4F)c(F)cc3F)n2nc1C12CC(C1)C2` [Compound 67a, 6-(6-(bicyclo[1.1.1]pentan-1-yl)-7-methoxyimidazo[1,2-b]pyridazin-3-yl)-3,5-difluoro-N-((3S,4S)-4-fluoropiperidin-3-yl)pyridin-2-amine] the pIC50 was 9.00.
